PubChem BioAssay AID256 (DTP/NCI, 2004)
Toxic doses and inconclusive results are not listed. Rule for the calls: active = survival T/C of 150% or more; inactive = T/C below 125% in these data.

Test system: CD2F1 mice, L1210 leukemia ip, survival T/C
Experiment: NCI In Vivo Anticancer Drug Screen. Data for tumor model L1210 Leukemia (intraperitoneal) in CD2F1 (CDF1) mice
Conditions: endpoint: mean survival time, higher = longer survival
Method in brief: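 Ratio T/C, where T is the treated-group value and C the vehicle-dosed control value, from mice implanted with a transplantable tumor.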

[1] = dose: 50.0 mg/kg/injection, schedule: Q01DX009 (ip), vehicle: Klucel (hydroxypropylcellulose) (HPC)
[2] = dose: 100.0 mg/kg/injection, schedule: Q01DX009 (ip), vehicle: saline with Tween-80
[3] = dose: 100.0 mg/kg/injection, schedule: Q04DX003 (ip), vehicle: saline with Tween-80
[4] = dose: 200.0 mg/kg/injection, schedule: Q01DX009 (ip), vehicle: saline with Tween-80
[5] = dose: 200.0 mg/kg/injection, schedule: Q04DX003 (ip), vehicle: saline with Tween-80
[6] = dose: 400.0 mg/kg/injection, schedule: Q01DX009 (ip), vehicle: saline with Tween-80
[7] = dose: 400.0 mg/kg/injection, schedule: Q04DX003 (ip), vehicle: saline with Tween-80

Measured: T/C

c1ccc2c(c1)CC1CCCCN1C2 (configuration not stated)
inactive: dose: 12.5 mg/kg/injection, schedule: Q01DX009 (ip), vehicle: Klucel (hydroxypropylcellulose) (HPC) 94 % of control | dose: 12.5 mg/kg/injection, schedule: Q04DX003 (ip), vehicle: saline 95 % of control | dose: 25.0 mg/kg/injection, schedule: Q01DX009 (ip), vehicle: Klucel (hydroxypropylcellulose) (HPC) 100 % of control | dose: 25.0 mg/kg/injection, schedule: Q04DX003 (ip), vehicle: saline 93 % of control | [1] 97 % of control | dose: 50.0 mg/kg/injection, schedule: Q04DX003 (ip), vehicle: saline 95 % of control

O=[N+]([O-])c1ccc(N2CCOCC2)c([N+](=O)[O-])c1
inactive: [2] 103 % of control | [3] 97 % of control | [4] 100 % of control | [5] 103 % of control | [6] 97 % of control | [7] 100 % of control

CC(C)c1nc(CCl)c(CCl)n1Cc1ccccc1
inactive: [1] 97 % of control | dose: 100.0 mg/kg/injection, schedule: Q01DX009 (ip), vehicle: Klucel (hydroxypropylcellulose) (HPC) 94 % of control | dose: 200.0 mg/kg/injection, schedule: Q01DX009 (ip), vehicle: Klucel (hydroxypropylcellulose) (HPC) 90 % of control

CC(=O)CC(OC(C)=O)(C(F)(F)F)C(F)(F)F
inactive: dose: 25.0 mg/kg/injection, schedule: Q04DX002 (ip), vehicle: saline 98 % of control | dose: 50.0 mg/kg/injection, schedule: Q04DX002 (ip), vehicle: saline 102 % of control | dose: 100.0 mg/kg/injection, schedule: Q04DX003 (ip), vehicle: Klucel (hydroxypropylcellulose) (HPC) 90 % of control

O=CC(Cc1ccccc1)CC(O)c1ccccc1 (configuration not stated)
inactive: dose: 100.0 mg/kg/injection, schedule: Q01DX001 (ip), vehicle: saline with Tween-80 95 % of control | [2] 107 % of control | dose: 200.0 mg/kg/injection, schedule: Q01DX001 (ip), vehicle: saline with Tween-80 88 % of control | [4] 96 % of control | dose: 400.0 mg/kg/injection, schedule: Q01DX001 (ip), vehicle: saline with Tween-80 91 % of control | [6] 96 % of control

CCC1(CC)CCC(Br)C(Br)C1 (configuration not stated)
inactive: [2] 94 % of control | [3] 95 % of control | [4] 94 % of control | [5] 98 % of control | [6] 89 % of control | [7] 93 % of control

CN(C)CCN(C)C
inactive: dose: 100.0 mg/kg/injection, schedule: Q01DX009 (ip), vehicle: saline 96 % of control | dose: 400.0 mg/kg/injection, schedule: Q01DX009 (ip), vehicle: saline 106 % of control
